Reference: US9889146B2, “Benzoxaborole compounds and uses thereof” (priority 2012, dated 2018)
≈ marks a conversion by molar mass, not a printed value. Like-named read-outs stand apart in the source and are kept apart here.

Assays:
Assay type in all cases: cell-based
[1] = tested on: Citrobacter freundii (AmpC); assay: microbe, parasite or virus in culture; settings: Citrobacter freundii
Proteus mirabilis (WT) = assay: microbe, parasite or virus in culture; settings: Proteus mirabilis (WT)
[2] = tested on: E. coli clinical isolates from subject E. coli 2; assay: GSK2251052 MIC of clinical isolates, subject E. coli 2; settings: for MIC: Escherichia coli, read-out: GSK2251052 MIC GSK results
Protocol: Minimum inhibitory concentrations (MICs) were determined using the CLSI (Clinical and Laboratory Standards Institute, formerly NCCLS) recommended broth microdilution methodology [NCCLS, 2003] using defined media.
Almost all clinical isolates were determined to contain T247I in addition to a second mutation in editing domains 1 or 2. The second mutations include Asp251Asn, Ala323 Val, Arg344Cys/His and Asp345Ala. On Day 11 and at Follow Up a double mutant (R344H; D345A) was also isolated (see Table 14). For these clinical isolates, five independent colonies were characterized from day 6 to late follow-up, and leuS and promoter regions were sequenced from all isolates.

Providencia spp.(all) = assay: microbe, parasite or virus in culture; settings: Providencia spp.(all)
[3] = tested on: K. pneumoniae ATCC 13883 wild type and mutants; assay: MIC in M9 minimal media; settings: Klebsiella pneumoniae, read-out: MICs in M9 minimal media
Protocol: (§1) Spontaneous Resistance Frequency was determined in vitro for GSK2251052 and the resistance mutants in E. coli ATCC 25922, K. pneumoniae ATCC 13883, and P. aeruginosa ATCC 27853 strains were characterized. GSK2251052 was prepared as described in U.S. Pat. No. 7,816,344 (the entire contents of which are hereby incorporated by reference herein). LB broth, Mueller Hinton II broth (adjusted), and Difco noble agar were obtained from Becton Dickinson (Cockeysville, Md., USA). M9 minimal broth containing 1×M9 salt, 0.5 μg/ML thiamine, 1 mM MgSO4, 0.1 mM CaCl2, 2% glucose, was obtained from Teknova (Hollister, Calif., USA). Antibacterial agents ciprofloxacin, ceftazidime, chloramphenicol, gentamycin, kanamycin, polymixin B, tobramycin and trimethoprim, and amino acids were obtained from Sigma Chemicals (St. Louis, Mo., USA). Strains were obtained from ATCC (Manassas, Va., USA).
(§2) Susceptibility tests were performed following the recommendations for aerobic bacteria (M7-A7) from the Clinical and Laboratories Standards Institute (CLSI).
(§3) The aminoacyl-tRNA synthetase enzyme, LeuRS, ensures the correct amino acid, leucine, is attached to tRNA^Leu. The LeuRS synthetic active site is capable of aminoacylating tRNA^Leu with amino acids structural similar to leucine (norvaline, norleucine, isoleucine and methionine). These mischarged tRNA^Leu are hydrolyzed by the editing domain, thus preventing the deleterious incorporation of incorrect amino acids into the growing polypeptide. The laboratory generated mutants were further tested for their ability to grow in defined media with exogenously added amino acids. Norvaline and norleucine, structurally similar to leucine, were tested in M9 minimal media. […]

[4] = tested on: P. aeruginosa ATCC 27853 wild type and mutants; assay: MIC in M9 minimal media; settings: Pseudomonas aeruginosa, read-out: MICs in M9 minimal media
Protocol: as §1, §2, §3

[5] = tested on: E. coli ATCC 25922 wild type and mutants; assay: MIC in M9 minimal media; settings: Escherichia coli, read-out: MICs in M9 minimal media
Protocol: as §1, §2, §3

[6] = GSK2251052 breakpoint, read-out: susceptibility category of MIC90

Compound `NC[C@H]1OB(O)c2c(OCCCO)cccc21` [GSK2251052, (S)-3-aminomethyl-7-(3-hydroxy-propoxy)-3h-benzo[c][1,2]oxaborol-1-ol] has an MIC90 [1] of 1 µg/mL (≈ 4.22 µM), an MIC90 ([1]; read-out: susceptibility category of MIC90) of under 4 µg/mL and an MIC90 (Proteus mirabilis (WT); 235 isolates, read-out: MIC90) of 1 µg/mL (≈ 4.22 µM). The susceptibility category of MIC90 (Proteus mirabilis (WT); [6]) was under 4 µg/mL, the MIC ([2]; 24 h, subject E. Coli 2, day 1, no LeuRS change) was 0.25 µg/mL and the MIC ([2]; 48 h) was 512 µg/mL. For the same compound, the MIC ([2]; 72 h) was 512 µg/mL, the MIC ([2]; 96 h) was 512 µg/mL and the MIC ([2]; 120 h) was 512 µg/mL. The MIC ([2]; 144 h) was 1020 µg/mL, the MIC ([2]; 168 h) was 1020 µg/mL and the MIC ([2]; 192 h) was 1020 µg/mL. It also gave an MIC ([2]; 216 h) of 1020 µg/mL, an MIC ([2]; 240 h) of 1020 µg/mL and an MIC ([2]; 264 h) of 1020 µg/mL. For the same compound, the MIC ([2]; 288 h) was 1020 µg/mL, the MIC ([2]; 312 h) was 1020 µg/mL and the MIC [2] was 1020 µg/mL. The “GSK2251052 MIC GSK results” value ([2]; subject E. Coli 2, Follow-up, 5x R344H, D345A) was 1024 µg/mL, the “GSK2251052 MIC GSK results” value ([2]; subject E. Coli 2, day 9, 4x T247I, D251N) was 1024 µg/mL and the “GSK2251052 MIC GSK results” value ([2]; subject E. Coli 2, day 10, 3x T247I, A323V) was 1024 µg/mL. The “GSK2251052 MIC GSK results” value ([2]; subject E. Coli 2, day 11, 4x R344H, D345A) was 1024 µg/mL, the “GSK2251052 MIC GSK results” value ([2]; subject E. Coli 2, day 12, 4x T247I, A323V) was 1024 µg/mL and the MIC90 (Providencia spp.(all); 68 isolates, read-out: MIC90) was 1 µg/mL (≈ 4.22 µM). For the same compound, the susceptibility category of MIC90 (Providencia spp.(all); [6]) was under 4 µg/mL, the MIC ([3]; ATCC13883, K 104(leuRS D345Y)) was over 256 µg/mL and the MIC ([3]; ATCC13883, K 105(leuRS G229R)) was over 256 µg/mL. The MIC ([3]; ATCC13883, K 107(leuRS S227F)) was 32 µg/mL (≈ 135 µM), the MIC ([3]; ATCC13883, K 108(leuRS T248P)) was over 256 µg/mL and the MIC ([3]; ATCC13883, K 110(leuRS V338L)) was 64 µg/mL (≈ 270 µM). For the same compound, the MIC ([3]; ATCC13883, Klebsiella pneumoniae ATCC13883) was 2 µg/mL (≈ 8.44 µM), the MIC ([4]; ATCC27853, P 101 (leuRS T256P)) was 128 µg/mL (≈ 540 µM) and the MIC ([4]; ATCC27853, P 106 (leuRS V342M)) was over 256 µg/mL. The MIC ([4]; ATCC27853, P 108 (leuRS T252P)) was over 256 µg/mL, the MIC ([4]; ATCC27853, P. aeruginosa ATCC27853) was 4 µg/mL (≈ 16.9 µM) and the MIC ([5]; ATCC25922, E 101(leuRS Y246H)) was 64 µg/mL (≈ 270 µM). It also gave an MIC ([5]; ATCC25922, E 102(leuRS D345G)) of over 256 µg/mL, an MIC ([5]; ATCC25922, E 107(leuRS G229S)) of 128 µg/mL (≈ 540 µM) and an MIC ([5]; ATCC25922, E. coli ATCC25922) of 1 µg/mL (≈ 4.22 µM).
